Source: ChEMBL document CHEMBL1177820, “Diazinones as P2 replacements for pyrazole-based cathepsin S inhibitors” (Bioorg Med Chem Lett, 2010)

Tests used:
[1] = Apparent permeability from basolateral to apical side in […] TC7 cells; assay type: ADME, cell-based; details: Caco-2
[2] = Apparent permeability from apical to basolateral side in […] TC7 cells; assay type: ADME, cell-based; details: Caco-2

Papp B→A [1]	Papp A→B [2]	Compound
1.5 ×10⁻⁶ cm/s	1.3 ×10⁻⁶ cm/s	Cn1c(=O)n(C2CCN(CCCn3nccc(-c4ccc(Cl)c(CNC(=O)c5ccc(F)cc5)c4)c3=O)CC2)c2cc(Cl)ccc21
2.9 ×10⁻⁶ cm/s	2.5 ×10⁻⁶ cm/s	Cn1c(=O)n(C2CCN(CCCn3cncc(-c4ccc(Cl)c(CNC(=O)c5ccc(F)cc5)c4)c3=O)CC2)c2cc(Cl)ccc21
3.7 ×10⁻⁶ cm/s	0.6 ×10⁻⁶ cm/s	Cn1c(=O)n(C2CCN(CCCn3ccnc(-c4ccc(Cl)c(CNC(=O)c5ccc(F)cc5)c4)c3=O)CC2)c2cc(Cl)ccc21
